Experimental data: publication PMC6522510 (Nature Communications, 2019)
pEC50: −log10 of the molar value. Where two headings read alike, the source gives them in different places.

Legend:
MOLM-13 [1] = experiment: Secondary dose-response HTS, Cell Titer Glo; assay type: cell-based, human; settings: for pEC50: Homo sapiens
MV4-11 [2] = experiment: Secondary dose-response HTS, Cell Titer Glo; assay type: cell-based, human; settings: for pEC50: Homo sapiens
CHRF288-11 [3] = experiment: Secondary dose-response HTS, Cell Titer Glo; assay type: cell-based, human; settings: secondary high-throughput screen, CHRF288-11; for pEC50: Homo sapiens, HTS, read-out: average effective concentration, CHRF288-11
CMK = experiment: Secondary dose-response HTS, Cell Titer Glo; assay type: cell-based, human; settings: CMK; for pEC50: Homo sapiens, read-out: average effective concentration, CMK
ML2 = experiment: Secondary dose-response HTS, Cell Titer Glo; assay type: cell-based, human; settings: for pEC50: Homo sapiens
U937 [4] = experiment: Secondary dose-response HTS, Cell Titer Glo; assay type: cell-based, human; settings: for pEC50: Homo sapiens
CMS = experiment: cells; parameters: species or system AML cell lines (8); Secondary HTS, 10-point dose-response in triplicate, Cell Titer Glo viability, four-parameter fit EC50; settings: 72 h, read-out: CMS
M07e = experiment: cells; parameters: species or system AML cell lines (8); Secondary HTS, 10-point dose-response in triplicate, Cell Titer Glo viability, four-parameter fit EC50; settings: M-07e, 72 h, read-out: M07e
CHRF288-11 [5] = experiment: cells; parameters: species or system AML cell lines (8); Secondary HTS, 10-point dose-response in triplicate, Cell Titer Glo viability, four-parameter fit EC50; settings: 72 h, read-out: CHRF288-11
U937 [6] = experiment: cells; parameters: species or system AML cell lines (8); Secondary HTS, 10-point dose-response in triplicate, Cell Titer Glo viability, four-parameter fit EC50; settings: Homo sapiens, U-937, 72 h, read-out: U937
MOLM-13 [7] = experiment: cells; parameters: species or system AML cell lines (8); Secondary HTS, 10-point dose-response in triplicate, Cell Titer Glo viability, four-parameter fit EC50; settings: Homo sapiens, MOLM-13, 72 h, read-out: MOLM-13
MV4-11 [8] = experiment: cells; parameters: species or system AML cell lines (8); Secondary HTS, 10-point dose-response in triplicate, Cell Titer Glo viability, four-parameter fit EC50; settings: Homo sapiens, MV4-11, 72 h, read-out: MV4-11
[9] = secondary high-throughput screen, MOLM-13, read-out: average effective concentration, MOLM-13
[10] = secondary high-throughput screen, MV4-11, read-out: average effective concentration, MV4-11
[11] = secondary high-throughput screen
[12] = secondary high-throughput screen, ML-2, read-out: average effective concentration, ML-2
[13] = U-937, secondary high-throughput screen, U937, read-out: average effective concentration, U937
[14] = secondary high-throughput screen, MOLM-13
[15] = secondary high-throughput screen, MV4-11
[16] = secondary high-throughput screen, ML-2
[17] = ML-2, read-out: average effective concentration, ML-2
[18] = U-937, read-out: average effective concentration, U937
[19] = secondary high-throughput screen, U937

SMILES	pEC50 (MOLM-13 [1]; [9])	pEC50 (MV4-11 [2]; [10])	pEC50 (CMK; [11])	pEC50 (ML2; [12])	pEC50 (CMS)	pEC50 (M07e)	pEC50 (CHRF288-11 [5])	other results
COc1cc(N2CCC(N3CCN(C)CC3)CC2)ccc1Nc1ncc(Cl)c(Nc2ccccc2P(C)(C)=O)n1 [AP26113]	6.59	6.22	5.19	5.40	< 5.00	< 5.00		pEC50 (CHRF288-11 [3]): 5.22; pEC50 (U937 [4]; [13]): 5.11
N#C/C(=C\c1ccc(-c2cc(Cl)ccc2Cl)o1)C(=O)Nc1cccc2ncccc12 [AGK 2]								average effective concentration, MOLM-13 (MOLM-13 [1]; [14]): Inactive; average effective concentration, MV4-11 (MV4-11 [2]; [15]): Inactive; average effective concentration, CHRF288-11 (CHRF288-11 [3]): Inactive; average effective concentration, CMK (CMK; [11]): Inactive; average effective concentration, ML-2 (ML2; [16]): Inactive
CCN(CCCOc1ccc2c(Nc3cc(CC(=O)Nc4cccc(F)c4)n[nH]3)ncnc2c1)CCOP(=O)(O)O [barasertib]					< 5.00	< 5.00	< 5.00	
Cc1cc(Nc2cc(N3CCN(C)CC3)nc(Sc3ccc(NC(=O)C4CC4)cc3)n2)[nH]n1 [TOZASERTIB]								pEC50 (MOLM-13 [1]; MOLM-13, read-out: average effective concentration, MOLM-13): 7.41; pEC50 (MV4-11 [2]; MV4-11, read-out: average effective concentration, MV4-11): 7.17; pEC50 (CMK): 5.85; pEC50 (ML2; [17]): < 5.00; pEC50 (U937 [4]; [18]): < 5.00
COc1cc(N2CCC(N3CCN(C)CC3)CC2)ccc1Nc1ncnc(Nc2ccccc2S(=O)(=O)C(C)C)n1 [ASP3026]	5.10	< 5.00	5.02	< 5.00	< 5.00	< 5.00	< 5.00	pEC50 (U937 [6]): < 5.00
CN1c2ccccc2C(=O)N2CCc3c([nH]c4ccccc34)[C@H]21 [EVODIAMINE]							< 5.00	pEC50 (MOLM-13 [7]): < 5.00; pEC50 (MV4-11 [8]): < 5.00
CC(C)C[C@H](NC(=O)[C@H](Cc1ccccc1)NC(=O)c1cnccn1)B(O)O [Bortezomib]							8.68	
COc1ccc(-c2ccc3ncc4c(c3c2)n(-c2ccc(N3CCNCC3)c(C(F)(F)F)c2)c(=O)n4C)cn1 [NVP-BGT226]								pEC50 (MOLM-13 [7]): 6.94
Cc1[nH]c2ccccc2c1CCNCc1ccc(/C=C/C(=O)NO)cc1 [Panobinostat]								pEC50 (U937 [6]): 7.91
CS(=O)(=O)N1CCc2c(-c3cnc(N)nc3)nc(N3CCOCC3)nc21 [CH-5132799]	5.60	5.41	5.82	5.16	< 5.00	< 5.00		pEC50 (CHRF288-11 [3]): 5.03; pEC50 (U937 [4]; [13]): 5.40
O=C(CCCCCN1C(=O)c2cccc3cccc(c23)C1=O)NO								pEC50 (MOLM-13 [7]): < 5.00; pEC50 (MV4-11 [8]): < 5.00
CO[C@@H](C(=O)N1Cc2n[nH]c(NC(=O)c3ccc(N4CCN(C)CC4)cc3)c2C1)c1ccccc1 [DANUSERTIB]	5.85	6.32		6.21	< 5.00	< 5.00	< 5.00	pEC50 (CMK): < 5.00; pEC50 (U937 [4]; [13]): 5.42
Cc1cc(Cl)ccc1OCCCC(=O)NO [DROXINOSTAT]								average effective concentration, MOLM-13 (MOLM-13 [1]; [14]): Inactive; average effective concentration, MV4-11 (MV4-11 [2]; [15]): Inactive; average effective concentration, CMK (CMK; [11]): Inactive; average effective concentration, ML-2 (ML2; [16]): Inactive; average effective concentration, U937 (U937 [4]; [19]): Inactive
CC[C@@H]1C(=O)N(C)c2cnc(Nc3ccc(C(=O)N[C@H]4CC[C@H](N5CCN(CC6CC6)CC5)CC4)cc3OC)nc2N1C(C)C [Volasertib]						< 5.00		pEC50 (MOLM-13 [7]): 8.11
O=c1cc(N2CCOCC2)oc2c(-c3cccc4c3sc3ccccc34)cccc12 [NU 7441]								average effective concentration, MOLM-13 (MOLM-13 [1]; [14]): Inactive; average effective concentration, MV4-11 (MV4-11 [2]; [15]): Inactive; average effective concentration, CHRF288-11 (CHRF288-11 [3]): Inactive; average effective concentration, CMK (CMK; [11]): Inactive; average effective concentration, U937 (U937 [4]; [19]): Inactive
NC(=O)c1cccc2cn(-c3ccc([C@@H]4CCCNC4)cc3)nc12 [NIRAPARIB]	5.12	< 5.00	6.55	6.74				pEC50 (CHRF288-11 [3]): 6.66; pEC50 (U937 [4]; [13]): < 5.00
Nc1ccc2ncnc(NCCc3ccc(Oc4ccccc4)cc3)c2c1 [QNZ]								average effective concentration, MOLM-13 (MOLM-13 [1]; [14]): Inactive; average effective concentration, MV4-11 (MV4-11 [2]; [15]): Inactive; average effective concentration, CHRF288-11 (CHRF288-11 [3]): Inactive; average effective concentration, CMK (CMK; [11]): Inactive; average effective concentration, ML-2 (ML2; [16]): Inactive
COc1cc2ncnc(-n3nc(-c4ccccn4)nc3N)c2cc1OC [CP-466722]								average effective concentration, MOLM-13 (MOLM-13 [1]; [14]): Inactive; average effective concentration, MV4-11 (MV4-11 [2]; [15]): Inactive; average effective concentration, CHRF288-11 (CHRF288-11 [3]): Inactive; average effective concentration, CMK (CMK; [11]): Inactive; average effective concentration, ML-2 (ML2; [16]): Inactive; average effective concentration, U937 (U937 [4]; [19]): Inactive
COc1cc(/C=C/c2ccc(O)cc2)cc(OC)c1 [PTEROSTILBENE]	< 5.00				< 5.00	< 5.00	< 5.00	pEC50 (CMK): 5.85; pEC50 (ML2; [17]): < 5.00; pEC50 (U937 [4]; [18]): < 5.00; pEC50 (MV4-11 [8]): < 5.00
C[C@@]1(C(=O)Nc2ccc(F)nc2)CCCN1c1nc(Nc2cc(C3CC3)n[nH]2)c2cccn2n1 [BMS-754807]	5.08	5.00	5.70	5.70	< 5.00	< 5.00	< 5.00	pEC50 (U937 [6]): < 5.00
CN(C)C1CCN(C(=O)c2ccc(NC(=O)Nc3ccc(-c4nc(N5CCOCC5)nc(N5CCOCC5)n4)cc3)cc2)CC1 [Gedatolisib]	6.72	7.33	5.11					pEC50 (U937 [4]; [13]): 7.62
CCNC(=O)c1noc(-c2cc(C(C)C)c(O)cc2O)c1-c1ccc(CN2CCOCC2)cc1 [NVP-AUY922]	9.00	9.00	9.00	7.64	< 5.00	< 5.00		pEC50 (CHRF288-11 [3]): 7.68; pEC50 (U937 [4]; [13]): 9.00
O=C(NC[C@H](O)CO)c1ccncc1Nc1ccc(I)cc1F [Pimasertib]		5.20	< 5.00	9.00	< 5.00	< 5.00	< 5.00	pEC50 (MOLM-13 [7]): < 5.00; pEC50 (U937 [6]): < 5.00
CN(Cc1cnc2nc(N)nc(N)c2n1)c1ccc(C(=O)N[C@@H](CCC(=O)O)C(=O)O)cc1 [METHOTREXATE]	< 5.00		8.35	9.00	< 5.00	< 5.00		pEC50 (CHRF288-11 [3]): 9.00; pEC50 (MV4-11 [8]): < 5.00; pEC50 (U937 [6]): < 5.00
